Measurements reported in patent US7915416B2, “Tetrahydroquinolines” (Merck Patent GmbH, priority 2004, dated 2011).

Test system: cells
Assay: cell cycle experiments (G2/M)
Format: cell-based

## N=C(N)c1ccc(OCCCCCOc2ccc(C(=N)N)cc2)cc1 [pentamidine]
  effect on cell cycle: maintain cells in the G2/M cell cycle
